# Assay results reported in ChEMBL document CHEMBL4184096 (Bioorg Med Chem Lett, 2018).
# Legend:
# hERG (KCNH2) = hERG (KCNH2) (Homo sapiens, UniProt Q12809); experiment: Inhibition of human ERG expressed in HEK293 cells at 30 nM at holding potential of -80 mV by whole cell patch clamp assay relative to control; type: cell-based; settings: HEK293 cells expressing human ERG
# [1] = molecular target: T1, KvLQT1/minK (Kv7.1/minK) potassium channel (Homo sapiens, UniProt P51787+Q8N4C8); experiment: Inhibition of human KvLQT1/minK channel expressed in CHO cells at 10 uM at holding potential of -80 mV by whole cell patch clamp assay relative to control; type: cell-based; settings: CHO cells expressing human KvLQT1/minK channel
# T1 sequence (P51787 whole entry): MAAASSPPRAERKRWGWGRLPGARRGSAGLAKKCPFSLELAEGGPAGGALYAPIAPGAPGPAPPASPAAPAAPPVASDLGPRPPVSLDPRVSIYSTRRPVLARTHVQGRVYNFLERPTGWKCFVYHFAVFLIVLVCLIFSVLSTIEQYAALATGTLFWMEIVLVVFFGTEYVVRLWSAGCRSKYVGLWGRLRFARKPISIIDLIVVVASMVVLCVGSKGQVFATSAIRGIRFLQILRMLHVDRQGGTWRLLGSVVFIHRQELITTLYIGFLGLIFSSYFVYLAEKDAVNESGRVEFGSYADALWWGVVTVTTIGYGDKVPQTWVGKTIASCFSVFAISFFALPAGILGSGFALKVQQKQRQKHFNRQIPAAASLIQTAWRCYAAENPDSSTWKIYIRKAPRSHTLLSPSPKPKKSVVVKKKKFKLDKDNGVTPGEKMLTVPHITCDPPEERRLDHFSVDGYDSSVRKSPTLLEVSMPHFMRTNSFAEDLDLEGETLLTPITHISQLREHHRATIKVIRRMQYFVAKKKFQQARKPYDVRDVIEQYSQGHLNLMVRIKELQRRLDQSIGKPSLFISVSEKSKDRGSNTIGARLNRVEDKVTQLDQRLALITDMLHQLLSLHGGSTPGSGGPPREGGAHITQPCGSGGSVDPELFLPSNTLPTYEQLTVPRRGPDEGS
# T1 sequence (Q8N4C8 whole entry): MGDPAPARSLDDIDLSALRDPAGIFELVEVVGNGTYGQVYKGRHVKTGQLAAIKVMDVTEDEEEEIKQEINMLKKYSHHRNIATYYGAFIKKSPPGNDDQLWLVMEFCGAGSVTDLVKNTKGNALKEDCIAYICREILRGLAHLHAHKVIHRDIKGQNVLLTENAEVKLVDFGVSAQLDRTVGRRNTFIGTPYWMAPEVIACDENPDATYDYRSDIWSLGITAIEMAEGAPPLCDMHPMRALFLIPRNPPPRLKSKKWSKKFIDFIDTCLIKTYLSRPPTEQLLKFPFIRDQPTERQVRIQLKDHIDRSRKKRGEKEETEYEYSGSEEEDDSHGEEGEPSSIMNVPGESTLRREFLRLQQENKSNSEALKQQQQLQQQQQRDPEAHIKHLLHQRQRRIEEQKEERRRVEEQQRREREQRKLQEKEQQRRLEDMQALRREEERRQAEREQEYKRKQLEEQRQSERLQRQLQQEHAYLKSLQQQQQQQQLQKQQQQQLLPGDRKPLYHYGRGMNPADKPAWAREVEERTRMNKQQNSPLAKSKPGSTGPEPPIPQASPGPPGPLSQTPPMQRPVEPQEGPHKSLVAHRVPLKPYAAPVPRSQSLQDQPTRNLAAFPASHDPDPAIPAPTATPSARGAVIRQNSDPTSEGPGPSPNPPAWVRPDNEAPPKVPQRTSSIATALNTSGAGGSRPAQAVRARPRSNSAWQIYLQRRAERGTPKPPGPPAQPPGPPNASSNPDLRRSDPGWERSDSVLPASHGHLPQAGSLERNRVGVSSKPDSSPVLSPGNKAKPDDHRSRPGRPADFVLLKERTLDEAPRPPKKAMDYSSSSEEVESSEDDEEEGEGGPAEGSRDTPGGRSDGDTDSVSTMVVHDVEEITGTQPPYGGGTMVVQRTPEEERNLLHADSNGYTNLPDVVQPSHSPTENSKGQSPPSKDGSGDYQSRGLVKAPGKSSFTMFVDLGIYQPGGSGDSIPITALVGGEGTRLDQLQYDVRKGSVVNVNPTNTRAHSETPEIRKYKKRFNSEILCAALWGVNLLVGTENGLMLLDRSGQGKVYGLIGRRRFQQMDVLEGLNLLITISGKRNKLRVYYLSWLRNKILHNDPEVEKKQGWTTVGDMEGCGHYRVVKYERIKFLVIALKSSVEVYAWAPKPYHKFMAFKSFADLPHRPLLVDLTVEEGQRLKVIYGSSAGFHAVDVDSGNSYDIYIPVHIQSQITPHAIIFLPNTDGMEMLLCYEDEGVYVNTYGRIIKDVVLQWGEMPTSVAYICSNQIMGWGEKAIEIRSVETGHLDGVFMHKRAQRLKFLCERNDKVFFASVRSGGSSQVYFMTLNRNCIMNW
# [2] = Protein binding to human plasma at 30 to 1000 ng/ml after 2 to 6 hrs by LC-MS/MS based rapid equilibrium dialysis method; type: ADME, cell-free; settings: read-out: PPB (converted)
# [3] = molecular target: T1, KvLQT1/minK (Kv7.1/minK) potassium channel; experiment: Inhibition of human KvLQT1/minK channel expressed in CHO cells at 1 uM at holding potential of -80 mV by whole cell patch clamp assay relative to control; type: cell-based; settings: CHO cells expressing human KvLQT1/minK channel
# [4] = molecular target: Sodium channel protein type 5 subunit alpha (Homo sapiens, UniProt Q14524); experiment: Inhibition of human Nav1.5 channel expressed in HEK293 cells at holding potential of -70 mV by whole cell patch clamp assay; type: cell-based
# Chain of Sodium channel protein type 5 subunit alpha (Q14524 whole entry): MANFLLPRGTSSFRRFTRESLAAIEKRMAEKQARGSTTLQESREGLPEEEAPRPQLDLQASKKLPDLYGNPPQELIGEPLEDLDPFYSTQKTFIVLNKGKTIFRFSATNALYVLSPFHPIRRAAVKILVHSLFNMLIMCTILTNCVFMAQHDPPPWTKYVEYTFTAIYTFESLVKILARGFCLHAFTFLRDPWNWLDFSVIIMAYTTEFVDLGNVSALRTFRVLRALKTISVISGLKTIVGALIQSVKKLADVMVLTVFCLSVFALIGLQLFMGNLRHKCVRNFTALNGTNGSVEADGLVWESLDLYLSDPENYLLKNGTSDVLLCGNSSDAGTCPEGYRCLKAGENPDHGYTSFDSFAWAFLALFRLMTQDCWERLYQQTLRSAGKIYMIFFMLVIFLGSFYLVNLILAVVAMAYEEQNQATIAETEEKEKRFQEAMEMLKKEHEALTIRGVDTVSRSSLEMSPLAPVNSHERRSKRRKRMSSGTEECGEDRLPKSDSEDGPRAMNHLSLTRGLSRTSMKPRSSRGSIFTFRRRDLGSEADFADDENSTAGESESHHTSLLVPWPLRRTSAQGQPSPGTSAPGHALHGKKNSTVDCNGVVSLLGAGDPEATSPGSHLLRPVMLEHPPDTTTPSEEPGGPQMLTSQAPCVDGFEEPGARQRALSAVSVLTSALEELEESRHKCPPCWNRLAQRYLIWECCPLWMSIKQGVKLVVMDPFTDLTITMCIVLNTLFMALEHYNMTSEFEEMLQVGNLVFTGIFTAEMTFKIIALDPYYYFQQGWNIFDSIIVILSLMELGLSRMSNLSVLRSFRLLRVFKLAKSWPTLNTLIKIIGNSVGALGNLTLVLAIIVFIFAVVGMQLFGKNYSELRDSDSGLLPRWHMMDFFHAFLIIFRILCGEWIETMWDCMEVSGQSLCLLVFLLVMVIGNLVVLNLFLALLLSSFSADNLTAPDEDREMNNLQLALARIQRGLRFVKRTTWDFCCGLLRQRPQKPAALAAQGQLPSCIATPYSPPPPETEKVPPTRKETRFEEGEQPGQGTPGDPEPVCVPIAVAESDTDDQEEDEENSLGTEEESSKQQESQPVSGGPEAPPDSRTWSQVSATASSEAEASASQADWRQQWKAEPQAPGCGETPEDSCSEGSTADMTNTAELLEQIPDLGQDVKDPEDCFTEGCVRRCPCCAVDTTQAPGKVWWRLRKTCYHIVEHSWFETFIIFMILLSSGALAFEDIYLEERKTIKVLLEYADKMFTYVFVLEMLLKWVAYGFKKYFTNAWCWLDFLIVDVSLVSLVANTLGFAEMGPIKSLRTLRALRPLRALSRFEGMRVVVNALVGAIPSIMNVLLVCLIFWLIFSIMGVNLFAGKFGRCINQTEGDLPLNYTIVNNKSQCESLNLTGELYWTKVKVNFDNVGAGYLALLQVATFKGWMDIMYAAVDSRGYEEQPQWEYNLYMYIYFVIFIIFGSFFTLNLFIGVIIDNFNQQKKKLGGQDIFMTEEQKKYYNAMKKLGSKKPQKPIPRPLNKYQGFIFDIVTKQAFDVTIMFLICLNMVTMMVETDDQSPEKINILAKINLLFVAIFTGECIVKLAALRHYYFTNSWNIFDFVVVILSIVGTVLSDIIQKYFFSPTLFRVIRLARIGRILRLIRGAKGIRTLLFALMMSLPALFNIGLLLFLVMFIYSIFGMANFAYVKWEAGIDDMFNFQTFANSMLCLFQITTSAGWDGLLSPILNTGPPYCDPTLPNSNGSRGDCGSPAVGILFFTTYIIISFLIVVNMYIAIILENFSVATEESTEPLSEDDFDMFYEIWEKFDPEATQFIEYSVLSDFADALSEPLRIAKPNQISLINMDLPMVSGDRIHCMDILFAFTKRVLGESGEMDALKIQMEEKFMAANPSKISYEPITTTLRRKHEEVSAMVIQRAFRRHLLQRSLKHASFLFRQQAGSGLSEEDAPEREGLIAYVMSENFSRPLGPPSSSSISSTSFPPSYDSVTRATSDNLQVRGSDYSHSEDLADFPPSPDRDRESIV
# [5] = Fraction unbound in human plasma at 30 to 1000 ng/ml after 2 to 6 hrs by LC-MS/MS based rapid equilibrium dialysis method; type: ADME, cell-free
# [6] = Plasma concentration in human cardiac arrhythmia model; type: ADME, cell-free
# [7] = molecular target: T2, Voltage-gated inwardly rectifying potassium channel KCNH2 (Homo sapiens, UniProt Q12809); experiment: Inhibition of human ERG expressed in HEK293 cells at holding potential of -80 mV by whole cell patch clamp assay; type: cell-based
# [8] = molecular target: T2, Voltage-gated inwardly rectifying potassium channel KCNH2; experiment: Inhibition of human ERG expressed in HEK293 cells by patch clamp assay; type: cell-based
Compound,inhibition at 0.03 µM (hERG (KCNH2)) [%],inhibition at 10 µM [1] [%],fraction unbound [2],inhibition at 1 µM [3] [%],IC50 [4] [nM],Cp(f) [5] [nM],Cp [6] [ng/mL],IC50 [7] [nM],inhibition (INH) [8] [%]
CNC(=O)C(CCN1CCC(O)(c2ccc(Cl)cc2)CC1)(c1ccccc1)c1ccccc1,5.9,23,0.043,4,483,48 to 54,560 to 630,245,–
CN(C)C(=O)C(CCN1CCC(O)(c2ccc(Cl)cc2)CC1)(c1ccccc1)c1ccccc1 [LOPERAMIDE],–,65,0.03 to 0.05,17,239,6.3 to 10,76 to 120,–,20
